Source: patent publication US4767621A (priority 1982, dated 1988)

What was measured:
[1] = tested on: human T lymphoblastoid cells of the CEM line bearing the antigen T-65
mouse = details: intra-peritoneally, Westley 1977; cited from earlier work
[2] = Acute toxicity of monensin, single intra-peritoneal administration (own experiments); type: in vivo, mouse; details: mouse, in vivo, ip; single administration intra-peritoneally; read-out: 50% lethal dose, per body weight
Protocol: (§1) Thus the acute toxicity of monensin in a single administration intra-peritoneally in the Charles River France mouse is characterised by a 50% lethal dose of 340 micrograms per mouse, namely 17 mg/kg of body weight.

[3] = tested on: Charles River France mouse; assay: as above; type: in vivo; details: single administration intra-peritoneally
Protocol: as §1

Structure (SMILES)	potentiating effect (factor) on the cytotoxicity of immunotoxin anti-T-65 [1]	spontaneous cytotoxicity of the ionophore for the cells employed [1]	50% lethal dose (LD50) (mouse) [mg/kg]	LD50 [2] [mg/kg]	50% lethal dose, per mouse [3] [micrograms per mouse]
CO[C@@H]1C[C@@H](C[C@H]2CC[C@H](C)[C@H]([C@@H](C)C(=O)O)O2)O[C@]2(O[C@](C)([C@H]3CC[C@@](C)([C@@H]4O[C@@H]([C@H]5O[C@@](O)(CO)[C@H](C)C[C@@H]5C)C[C@@H]4C)O3)C[C@H]2C)[C@@H]1C [Nigericin, nigericin]	~7000	not spontaneously cytotoxic	65		
CC[C@@]1([C@@H]2O[C@@H]([C@H]3O[C@@](O)(CO)[C@H](C)C[C@@H]3C)C[C@@H]2C)CC[C@H]([C@]2(C)CC[C@]3(C[C@H](O)[C@@H](C)[C@@H]([C@@H](C)[C@@H](OC)[C@H](C)C(=O)O)O3)O2)O1 [Monensin, monensin]	~55000	not spontaneously cytotoxic	16.8	17	340
CC[C@@H](C(=O)[C@@H](C)[C@@H](O)[C@H](C)CCc1ccc(C)c(O)c1C(=O)O)[C@H]1O[C@](CC)([C@H]2CC[C@](O)(CC)[C@H](C)O2)C[C@@H]1C [Lasalocide, lasalocide]	~36000	not spontaneously cytotoxic	64		
